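Assay format: 96-well plates, 48-hour exposure. At the GI50, growth is halved. At the TGI there is no net growth.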 Where a SMILES comes first, the peptide text is derived from it. [ ]: non-standard residue; d: D form. The star is where a group is joined. NMeF = CN[CH](Cc1ccccc1)C(=O)O; NMeV = CN[CH](C(=O)O)C(C)C; Boc = CC(C)(C)OC(=O)*

Test systems include SNB-19 CNS; SF-295 CNS; KM12 colon; 786-0 renal; COLO 205 colon; OVCAR-8 ovarian; CAKI-1 renal; M14 melanoma; NCI-H226 lung; RXF 393 renal.
Holding throughout (assay): inhibition of tumour cell growth, NCI panel, 48 h

Regarding `CCOc1ccccc1N=Nc1ccc2oc(=O)c(C(=O)Nc3cccc(C)c3)cc2c1`, the TGI with SNB-19 CNS is 99.4 µM; with SF-295 CNS it was over 100 µM; in the experiment with KM12 colon it was over 100 µM; in the experiment on 786-0 renal it was over 100 µM; in the experiment on COLO 205 colon it was 71.8 µM; in the experiment with OVCAR-8 ovarian, 86 µM. Besides, the TGI with CAKI-1 renal was over 100 µM; with M14 melanoma, 59.5 µM.

For the compound `COc1ccc(C(=O)C(C(=O)CCC(=O)Nc2cccc(Cl)c2)c2ccc(OC)cc2)cc1` (stereo unspecified), the TGI with SNB-19 CNS, with SF-295 CNS, in the experiment with KM12 colon, with 786-0 renal, in the experiment on NCI-H226 lung and with COLO 205 colon was over 100 µM each time. In addition, the TGI with OVCAR-8 ovarian, in the experiment on CAKI-1 renal and in the experiment on M14 melanoma was over 100 µM each time.

As to `O=C1C2C3C=C4c5ccccc5N(c5ccccc5)C4(C2C(=O)N1Cc1ccccc1)C1C(=O)N(Cc2ccccc2)C(=O)C31` (stereo unspecified), the TGI in the experiment on SNB-19 CNS, in the experiment with SF-295 CNS, in the experiment on KM12 colon, in the experiment on 786-0 renal, in the experiment on COLO 205 colon and in the experiment on OVCAR-8 ovarian was over 100 µM throughout.

On to `Cc1cc(S(=O)(=O)Nc2nnc(-c3ccccc3)c(-c3ccccc3)n2)c(SCC(N)=O)cc1Cl`, for which the GI50 is 35.3 µM in the experiment with SNB-19 CNS; 28.5 µM in the experiment with SF-295 CNS; 37000 nM in the experiment with KM12 colon; 38600 nM with 786-0 renal; 59.9 µM in the experiment with NCI-H226 lung; over 100000 nM in the experiment on COLO 205 colon. For the same compound, the GI50 was 32.5 µM in the experiment on OVCAR-8 ovarian, over 100000 nM in the experiment on CAKI-1 renal and 56500 nM in the experiment on M14 melanoma. The TGI was over 100 µM in the experiment on SNB-19 CNS; 75 µM with SF-295 CNS; over 100 µM in the experiment with KM12 colon; over 100 µM with 786-0 renal; over 100 µM in the experiment on NCI-H226 lung; over 100 µM in the experiment with COLO 205 colon. The TGI was 87 µM in the experiment with OVCAR-8 ovarian, over 100 µM with CAKI-1 renal and over 100 µM with M14 melanoma.

As to `Cc1cc(Cl)ccc1N=C1NC(=O)C(CC(=O)Nc2ccc([N+](=O)[O-])cc2[N+](=O)[O-])S1` (stereo unspecified), the TGI with SNB-19 CNS was 73.2 µM; with SF-295 CNS, 59.5 µM; in the experiment on KM12 colon, over 100 µM; with 786-0 renal, over 100 µM; in the experiment with COLO 205 colon, over 100 µM; in the experiment on OVCAR-8 ovarian, over 100 µM. Besides, the TGI in the experiment on CAKI-1 renal came out at 54.3 µM; in the experiment with M14 melanoma it was 59.8 µM.

In the case of `Cc1cccc(NC(=O)/C(=N\NC(C)(C)C)C2NC(=S)NC2=O)c1C` (stereo unspecified), the TGI with SNB-19 CNS, with SF-295 CNS, with KM12 colon, in the experiment on 786-0 renal, with COLO 205 colon and in the experiment on OVCAR-8 ovarian was over 100 µM each time. The TGI in the experiment with CAKI-1 renal and in the experiment with M14 melanoma was over 100 µM throughout.

Take `CC1(C)SCc2nc3ncccc3n21`: the TGI in the experiment on SF-295 CNS, in the experiment with KM12 colon, in the experiment with 786-0 renal, in the experiment with NCI-H226 lung, with COLO 205 colon and in the experiment with OVCAR-8 ovarian was over 100 µM each time. Also, the TGI in the experiment on RXF 393 renal, in the experiment on CAKI-1 renal and in the experiment with M14 melanoma was over 100 µM each time.

Take `COc1cc(C(C)O)c[n+](CCc2c[nH]c3ccccc23)c1` (stereo unspecified): the TGI in the experiment with SNB-19 CNS, with SF-295 CNS, in the experiment on KM12 colon, in the experiment with 786-0 renal, in the experiment with COLO 205 colon and in the experiment on OVCAR-8 ovarian was over 100 µM in each case. Moreover, the TGI in the experiment on RXF 393 renal, in the experiment with CAKI-1 renal and in the experiment with M14 melanoma was over 100 µM each time.

For the compound `O=C(N/N=C/c1ccc(Cl)cc1)c1ccc(C(F)(F)F)nc1Nc1cccc(C(F)(F)F)c1`, the GI50 with SNB-19 CNS is 2.61 µM; with SF-295 CNS, 1.17 µM; in the experiment with KM12 colon, 2310 nM; in the experiment on 786-0 renal, 818 nM; in the experiment on NCI-H226 lung, 2.21 µM; in the experiment on COLO 205 colon it was 1800 nM. The GI50 is 2.23 µM in the experiment with OVCAR-8 ovarian, 2370 nM with CAKI-1 renal and 2540 nM in the experiment with M14 melanoma. Moreover, the TGI in the experiment with SNB-19 CNS turned out to be 13 µM; in the experiment with SF-295 CNS, 4.62 µM; with KM12 colon, 8.4 µM; in the experiment with 786-0 renal, 3.63 µM; with NCI-H226 lung it was 6.82 µM; in the experiment with COLO 205 colon, 4.31 µM. The TGI came to 15.1 µM with OVCAR-8 ovarian, 9.88 µM with CAKI-1 renal and 10 µM in the experiment with M14 melanoma.

Take `CN1c2ccc(Cl)cc2C(=O)NC1c1ccc([N+](=O)[O-])s1` (stereo unspecified): the TGI is over 100 µM in the experiment on SNB-19 CNS; 85.7 µM with SF-295 CNS; 31.9 µM in the experiment with KM12 colon; 30.8 µM in the experiment with 786-0 renal; 66.4 µM in the experiment with COLO 205 colon; 38.9 µM in the experiment on OVCAR-8 ovarian. For the same compound, the TGI worked out at 24.6 µM with RXF 393 renal, 40.7 µM in the experiment on CAKI-1 renal and 32.5 µM with M14 melanoma.

Turning to `CC1(C)C(=O)N(CCCCCCN2C(=O)C(C)(C)c3ccccc32)c2ccccc21`, the TGI was over 100 µM with SNB-19 CNS; over 100 µM in the experiment with SF-295 CNS; over 100 µM in the experiment with KM12 colon; 40.8 µM in the experiment on 786-0 renal; 87.2 µM in the experiment on NCI-H226 lung; 55.2 µM with COLO 205 colon. Besides, the figures for the TGI with OVCAR-8 ovarian, in the experiment on CAKI-1 renal and in the experiment with M14 melanoma were over 100 µM, over 100 µM and 87.4 µM, respectively.

Take `Cc1cn(C2CC(O)C(CO)O2)c(=O)n2nnnc12` (stereo unspecified): the TGI in the experiment with SNB-19 CNS, with SF-295 CNS, in the experiment with KM12 colon, with 786-0 renal, with NCI-H226 lung and in the experiment with COLO 205 colon was over 100 µM throughout. The TGI in the experiment with OVCAR-8 ovarian and with M14 melanoma was over 100 µM throughout.

With `O=C1CCN2C(=O)CCN12`, the TGI with SNB-19 CNS, in the experiment on SF-295 CNS, in the experiment with KM12 colon, in the experiment with 786-0 renal, with NCI-H226 lung and in the experiment on COLO 205 colon was over 100 µM in each case. Besides, the TGI in the experiment with OVCAR-8 ovarian, with CAKI-1 renal and in the experiment on M14 melanoma was over 100 µM in each case.

With `C=C1C(=O)O[C@H]2[C@H]1CC/C(COC(=O)C(=O)c1cn(Cc3ccccc3)c3ccccc13)=C\CC[C@@]1(C)O[C@@H]21`, the GI50 was 7.21 µM with SNB-19 CNS; 10.5 µM in the experiment on SF-295 CNS; 3060 nM in the experiment on KM12 colon; 1930 nM in the experiment with 786-0 renal; 2080 nM in the experiment with COLO 205 colon; 3.04 µM in the experiment on OVCAR-8 ovarian. Also, the GI50 in the experiment on RXF 393 renal was 1890 nM; in the experiment with CAKI-1 renal, 2960 nM; with M14 melanoma, 1780 nM. Moreover, the TGI was found to be 25.9 µM with SNB-19 CNS; 25.6 µM in the experiment on SF-295 CNS; 11.5 µM in the experiment with KM12 colon; 4.03 µM in the experiment on 786-0 renal; 4.46 µM with COLO 205 colon; 11.4 µM in the experiment on OVCAR-8 ovarian. Further, the TGI is 3.43 µM in the experiment with RXF 393 renal, 34.5 µM with CAKI-1 renal and 4.13 µM in the experiment with M14 melanoma.

Regarding `CC(C)C(NC(=O)OC(C)(C)C)C(=O)N(C)C(Cc1ccccc1)C(=O)N(C)C(C(=O)O)C(C)C` (stereo not drawn) (Boc-Val-[NMeF]-[NMeV]-OH; configuration not given here), the TGI with SNB-19 CNS, with SF-295 CNS, with KM12 colon, in the experiment on 786-0 renal, with NCI-H226 lung and with COLO 205 colon was over 100 µM in each case. The TGI with OVCAR-8 ovarian and in the experiment with M14 melanoma was over 100 µM throughout.

For `COC(C(O)CO)C(O)C(O)C(=O)NNc1ccccc1` (stereo unspecified), the TGI in the experiment on SNB-19 CNS is over 100 µM; in the experiment with SF-295 CNS, over 100 µM; with KM12 colon, over 100 µM; in the experiment with 786-0 renal, over 100 µM; in the experiment on COLO 205 colon, 28.7 µM; in the experiment on OVCAR-8 ovarian it was over 100 µM. In addition, the TGI with RXF 393 renal, in the experiment on CAKI-1 renal and in the experiment with M14 melanoma was over 100 µM each time.

With `Cc1ccc(C2=C(c3ccccc3)C(Br)(c3ccc(C)cc3)C(c3ccccc3)=C2c2ccc(C)cc2)cc1`, the TGI with SNB-19 CNS, in the experiment on SF-295 CNS, with KM12 colon, in the experiment with 786-0 renal, in the experiment with COLO 205 colon and in the experiment on OVCAR-8 ovarian was over 100 µM in each case. Further, the TGI with CAKI-1 renal and in the experiment with M14 melanoma was over 100 µM in each case.

As to `Cc1cc(C(=O)Nc2ncc(Cc3cccc(C(F)(F)F)c3)s2)c2ccccc2n1`, the GI50 in the experiment with SNB-19 CNS was 3.02 µM; in the experiment on SF-295 CNS, 1.63 µM; with KM12 colon, 498 nM; in the experiment on 786-0 renal, 2840 nM; in the experiment with COLO 205 colon, 750 nM; in the experiment with OVCAR-8 ovarian it was 3.49 µM. Moreover, the GI50 in the experiment on CAKI-1 renal is 2130 nM; in the experiment on M14 melanoma, 185 nM. Besides, the TGI in the experiment with SNB-19 CNS, with SF-295 CNS, in the experiment with KM12 colon, in the experiment on 786-0 renal, in the experiment with COLO 205 colon and with OVCAR-8 ovarian was over 100 µM throughout. Also, the TGI with CAKI-1 renal and in the experiment on M14 melanoma was over 100 µM throughout.

On to `c1ccc(CNn2nnc3ccccc32)cc1`, for which the TGI in the experiment on SNB-19 CNS, in the experiment on SF-295 CNS, in the experiment with KM12 colon, in the experiment on 786-0 renal, in the experiment on COLO 205 colon and in the experiment with OVCAR-8 ovarian was over 100 µM each time. Also, the TGI in the experiment on RXF 393 renal, in the experiment with CAKI-1 renal and in the experiment on M14 melanoma was over 100 µM in each case.

Source of the values: PubChem BioAssay (NCI).
